According to patent publication US20230081390A1, “INHIBITORS OF RAF KINASES” (Kinnate Biopharma Inc., priority 2019, published 2023):

molecular target: human RAF1 (Homo sapiens, UniProt P04049); assay: Protein kinase assay (33P-ATP filter binding), human RAF1, 10-dose IC50; format: biochemical; conditions: MEK1 (K97R) substrate 3 micromolar, ATP 10 micromolar, read-out: RAF-1 IC50
Outline: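 Radiometric filter-binding format: 10 µM ATP, 3 µM MEK1 (K97R) as substrate for human RAF1, 2 hr at room temperature in 20 mM HEPES pH 7.5 with 10 mM MgCl2. Compounds were dispensed acoustically from DMSO. IC50 came from percent kinase activity relative to vehicle over a 10-dose series.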

human RAF1, sequence (P04049 whole entry): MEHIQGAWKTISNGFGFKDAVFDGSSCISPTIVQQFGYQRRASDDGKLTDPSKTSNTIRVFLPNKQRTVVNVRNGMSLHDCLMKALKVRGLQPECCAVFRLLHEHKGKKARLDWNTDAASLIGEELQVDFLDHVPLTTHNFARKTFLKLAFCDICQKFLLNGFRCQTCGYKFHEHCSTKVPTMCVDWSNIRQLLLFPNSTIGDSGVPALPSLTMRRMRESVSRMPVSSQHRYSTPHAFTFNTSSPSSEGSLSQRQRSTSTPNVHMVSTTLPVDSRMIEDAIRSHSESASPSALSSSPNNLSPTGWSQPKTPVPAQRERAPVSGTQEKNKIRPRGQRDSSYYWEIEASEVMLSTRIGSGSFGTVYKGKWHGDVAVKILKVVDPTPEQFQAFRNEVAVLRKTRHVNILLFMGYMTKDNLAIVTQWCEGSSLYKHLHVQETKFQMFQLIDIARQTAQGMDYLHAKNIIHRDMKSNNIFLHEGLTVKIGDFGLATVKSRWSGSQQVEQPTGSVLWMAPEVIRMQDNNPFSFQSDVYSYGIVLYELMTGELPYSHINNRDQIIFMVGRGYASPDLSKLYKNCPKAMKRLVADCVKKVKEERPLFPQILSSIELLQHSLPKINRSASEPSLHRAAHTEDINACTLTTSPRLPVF

| Structure (SMILES) | IC50 [µM] |
| --- | --- |
| Cc1cc(F)c(NC(=O)N2CCC(C(C)(C)C#N)C2)cc1-c1cc(OCCO)nc(N2CCOCC2)c1 (centres unmarked) [Example 99, 3-(1-cyano-1-methylethyl)-N-[2-fluoro-5-[2-(2-hydroxyethoxy)-6-(morpholin-4-yl)pyridin-4-yl]-4-methylphenyl]pyrrolidine-1-carboxamide] | < 0.01 |
| Cc1cc(F)c(NC(=O)N2CCC(F)(F)C(C(F)(F)F)C2)cc1-c1cc(OCCO)nc(N2CCOCC2)c1 (centres unmarked) [Example 104, 4,4-difluoro-N-[2-fluoro-5-[2-(2-hydroxyethoxy)-6-(morpholin-4-yl)pyridin-4-yl]-4-methylphenyl]-3-(trifluoromethyl)piperidine-1-carboxamide] | < 0.01 |
| Cc1cc(F)c(NC(=O)N2CC3(C(F)(F)F)CC2CO3)cc1-c1cc(OCCO)nc(N2CCOCC2)c1 (centres unmarked) [Example 107, N-[2-fluoro-5-[2-(2-hydroxyethoxy)-6-(morpholin-4-yl)pyridin-4-yl]-4-methylphenyl]-1-(trifluoromethyl)-2-oxa-5-azabicyclo[2.2.1]heptane-5-carboxamide] | < 0.01 |
| Cc1ccc(NC(=O)N2CCC(C3CC3(F)F)C2)cc1-c1cc(OCCO)nc(N2CCOCC2)c1 (centres unmarked) [Example 114, 3-(2,2-difluorocyclopropyl)-N-[3-[2-(2-hydroxyethoxy)-6-(morpholin-4-yl)pyridin-4-yl]-4-methylphenyl]pyrrolidine-1-carboxamide] | < 0.01 |
| Cc1ccc(NC(=O)N2CCC(CC(F)(F)F)C2)cc1-c1cnc(OC2CCOCC2)c(N2CCOCC2)c1 (centres unmarked) [Example 123, N-[4-methyl-3-[5-(morpholin-4-yl)-6-(oxan-4-yloxy)pyridin-3-yl]phenyl]-3-(2,2,2-trifluoroethyl)pyrrolidine-1-carboxamide] | < 0.01 |
| Cc1ccc(NC(=O)Nc2cnn(C(F)(F)F)c2)cc1-c1cc(OCCO)nc(N2CCOCC2)c1 [Example 125, 1-[3-[2-(2-hydroxyethoxy)-6-(morpholin-4-yl)pyridin-4-yl]-4-methylphenyl]-3-[1-(trifluoromethyl)pyrazol-4-yl]urea] | < 0.01 |
| Cc1cc(F)c(NC(=O)N2CC[C@@H](OC(F)(F)F)C2)cc1-c1cnc(OC2CCOCC2)c(N2CCOCC2)c1 [Example 126, (3R)-N-[2-fluoro-4-methyl-5-[5-(morpholin-4-yl)-6-(oxan-4-yloxy)pyridin-3-yl]phenyl]-3-(trifluoromethoxy)pyrrolidine-1-carboxamide] | < 0.01 |
| Cc1cc(F)c(NC(=O)N2CC[C@H](OC(F)(F)F)C2)cc1-c1cnc(OC2CCOCC2)c(N2CCOCC2)c1 [Example 127, (3S)-N-[2-fluoro-4-methyl-5-[5-(morpholin-4-yl)-6-(oxan-4-yloxy)pyridin-3-yl]phenyl]-3-(trifluoromethoxy)pyrrolidine-1-carboxamide] | < 0.01 |
| Cc1ccc(NC(=O)N2CC[C@@H](OC(F)(F)F)C2)cc1-c1cnc(OC2CCOCC2)c(N2CCOCC2)c1 [Example 128, (3R)-N-[4-methyl-3-[5-(morpholin-4-yl)-6-(oxan-4-yloxy)pyridin-3-yl]phenyl]-3-(trifluoromethoxy)pyrrolidine-1-carboxamide] | < 0.01 |
| Cc1ccc(NC(=O)N2CC[C@H](OC(F)(F)F)C2)cc1-c1cnc(OC2CCOCC2)c(N2CCOCC2)c1 [Example 129, (3S)-N-[4-methyl-3-[5-(morpholin-4-yl)-6-(oxan-4-yloxy)pyridin-3-yl]phenyl]-3-(trifluoromethoxy)pyrrolidine-1-carboxamide] | < 0.01 |
| Cc1ccc(NC(=O)Nc2cnn(C(F)(F)F)c2)cc1-c1cnc(OC2CCOCC2)c(N2CCOCC2)c1 [Example 130, 1-[4-methyl-3-[5-(morpholin-4-yl)-6-(oxan-4-yloxy)pyridin-3-yl]phenyl]-3-[1-(trifluoromethyl)pyrazol-4-yl]urea] | < 0.01 |
| Cc1ccc(NC(=O)N2CC[C@@H](SC(F)(F)F)C2)cc1-c1cnc(OC2CCOCC2)c(N2CCOCC2)c1 [Example 131, (3R)-N-[4-methyl-3-[5-(morpholin-4-yl)-6-(oxan-4-yloxy)pyridin-3-yl]phenyl]-3-[(trifluoromethyl)sulfanyl]pyrrolidine-1-carboxamide] | < 0.01 |
| Cc1ccc(NC(=O)N2CC[C@H](SC(F)(F)F)C2)cc1-c1cnc(OC2CCOCC2)c(N2CCOCC2)c1 [Example 132, (3S)-N-[4-methyl-3-[5-(morpholin-4-yl)-6-(oxan-4-yloxy)pyridin-3-yl]phenyl]-3-[(trifluoromethyl)sulfanyl]pyrrolidine-1-carboxamide] | < 0.01 |
| Cc1ccc(NC(=O)N2CC[C@@H](OCC(F)(F)F)C2)cc1-c1cc(OCCO)nc(N2CCOCC2)c1 [Example 133, (3R)-N-[3-[2-(2-hydroxyethoxy)-6-(morpholin-4-yl)pyridin-4-yl]-4-methylphenyl]-3-(2,2,2-trifluoroethoxy)pyrrolidine-1-carboxamide] | < 0.01 |
| Cc1ccc(NC(=O)N2CCC(S(=O)(=O)C(F)(F)F)C2)cc1-c1cc(OCCO)nc(N2CCOCC2)c1 (centres unmarked) [Example 134, N-[3-[2-(2-hydroxyethoxy)-6-(morpholin-4-yl)pyridin-4-yl]-4-methylphenyl]-3-trifluoromethanesulfonylpyrrolidine-1-carboxamide] | < 0.01 |
| Cc1ccc(NC(=O)Nc2cnn(CC(F)(F)F)c2)cc1-c1cc(OCCO)nc(N2CCOCC2)c1 [Example 135, 1-[3-[2-(2-hydroxyethoxy)-6-(morpholin-4-yl)pyridin-4-yl]-4-methylphenyl]-3-[1-(2,2,2-trifluoroethyl)pyrazol-4-yl]urea] | < 0.01 |
| Cc1ccc(NC(=O)N2CC/C(=C\C(F)(F)F)C2)cc1-c1cc(OCCO)nc(N2CCOCC2)c1 [Example 136, (3E)-N-[3-[2-(2-hydroxyethoxy)-6-(morpholin-4-yl)pyridin-4-yl]-4-methylphenyl]-3-(2,2,2-trifluoroethylidene)pyrrolidine-1-carboxamide] | < 0.01 |
| Cc1ccc(NC(=O)N2CC[C@H](OCC(F)(F)F)C2)cc1-c1cc(OCCO)nc(N2CCOCC2)c1 [Example 137, (3S)-N-[3-[2-(2-hydroxyethoxy)-6-(morpholin-4-yl)pyridin-4-yl]-4-methylphenyl]-3-(2,2,2-trifluoroethoxy)pyrrolidine-1-carboxamide] | < 0.01 |
| Cc1ccc(NC(=O)N2CC[C@H](OC(C)C)C2)cc1-c1cc(OCCO)nc(N2CCOCC2)c1 [Example 138, (3S)-N-[3-[2-(2-hydroxyethoxy)-6-(morpholin-4-yl)pyridin-4-yl]-4-methylphenyl]-3-isopropoxypyrrolidine-1-carboxamide] | < 0.01 |
| Cc1ccc(NC(=O)Nc2cnn(C(C)C)c2)cc1-c1cc(OCCO)nc(N2CCOCC2)c1 [Example 139, 1-[3-[2-(2-hydroxyethoxy)-6-(morpholin-4-yl)pyridin-4-yl]-4-methylphenyl]-3-(1-isopropylpyrazol-4-yl)urea] | < 0.01 |
| Cc1ccc(NC(=O)N2CC[C@H](OC(C)(F)F)C2)cc1-c1cc(OCCO)nc(N2CCOCC2)c1 [Example 140, (3S)-3-(1,1-difluoroethoxy)-N-[3-[2-(2-hydroxyethoxy)-6-(morpholin-4-yl)pyridin-4-yl]-4-methylphenyl]pyrrolidine-1-carboxamide] | < 0.01 |
| Cc1ccc(NC(=O)N(C)c2cnn(C(F)(F)F)c2)cc1-c1cc(OCCO)nc(N2CCOCC2)c1 [Example 141, 1-[3-[2-(2-hydroxyethoxy)-6-(morpholin-4-yl)pyridin-4-yl]-4-methylphenyl]-3-methyl-3-[1-(trifluoromethyl)pyrazol-4-yl]urea] | < 0.01 |
| Cc1ccc(NC(=O)N2CC[C@H](OC(F)(F)F)C2)cc1-c1cc(OC[C@H](O)CO)nc(N2CCOCC2)c1 [Example 142, (3S)-N-(3-[2-[(2R)-2,3-dihydroxypropoxy]-6-(morpholin-4-yl)pyridin-4-yl]-4-methylphenyl)-3-(trifluoromethoxy)pyrrolidine-1-carboxamide] | < 0.01 |
| Cc1ccc(NC(=O)N2CC[C@H](OC(F)(F)F)C2)cc1-c1cc(OC[C@@H](O)CO)nc(N2CCOCC2)c1 [Example 143, (3S)-N-(3-[2-[(2S)-2,3-dihydroxypropoxy]-6-(morpholin-4-yl)pyridin-4-yl]-4-methylphenyl)-3-(trifluoromethoxy)pyrrolidine-1-carboxamide] | < 0.01 |
| Cc1ccc(NC(=O)N2C[C@@H](OC(F)(F)F)CO2)cc1-c1cc(OCCO)nc(N2CCOCC2)c1 [Example 144, (4R)-N-[3-[2-(2-hydroxyethoxy)-6-(morpholin-4-yl)pyridin-4-yl]-4-methylphenyl]-4-(trifluoromethoxy)-1,2-oxazolidine-2-carboxamide] | < 0.01 |
| Cc1ccc(NC(=O)N2CCC(=C3CC3)C2)cc1-c1cc(OCCO)nc(N2CCOCC2)c1 [Example 145, 3-cyclopropylidene-N-[3-[2-(2-hydroxyethoxy)-6-(morpholin-4-yl)pyridin-4-yl]-4-methylphenyl]pyrrolidine-1-carboxamide] | < 0.01 |
| Cc1ccc(NC(=O)N2CC(OC(F)(F)F)CN2)cc1-c1cc(OCCO)nc(N2CCOCC2)c1 (centres unmarked) [Example 146, N-[3-[2-(2-hydroxyethoxy)-6-(morpholin-4-yl)pyridin-4-yl]-4-methylphenyl]-4-(trifluoromethoxy) pyrazolidine-1-carboxamide] | < 0.01 |
| Cc1ccc(NC(=O)n2ccc(C(=O)C(F)(F)F)c2)cc1-c1cc(OCCO)nc(N2CCOCC2)c1 [Example 147, N-[3-[2-(2-hydroxyethoxy)-6-(morpholin-4-yl)pyridin-4-yl]-4-methylphenyl]-3-(2,2,2-trifluoroacetyl)pyrrole-1-carboxamide] | 1 to 10 |
| Cc1ccc(NC(=O)N2CC(O)C(CC(F)(F)F)C2)cc1-c1cc(OCCO)nc(N2CCOCC2)c1 (centres unmarked) [Example 148, 3-hydroxy-N-[3-[2-(2-hydroxyethoxy)-6-(morpholin-4-yl)pyridin-4-yl]-4-methylphenyl]-4-(2,2,2-trifluoroethyl)pyrrolidine-1-carboxamide] | < 0.01 |
